From US11339144B2 (Navitor Pharmaceuticals, Inc., priority 2017, dated 2022)

Legend:
[1] = biological target: HA-GST-Rheb (GTP-γ-S loaded) activating mTORC1 (Homo sapiens (Human), UniProt Q15382); test: Rheb-dependent in vitro kinase assay (Rheb-IVK; LanthaScreen or Western readout); assay type: biochemical; conditions: Rheb-dependent in vitro kinase assay; read-out: IVK IC50
Rheb = Rheb (Homo sapiens (Human), UniProt Q15382); test: Affinity Selection Mass Spectrometry (ASMS); assay type: binding; conditions: affinity (R3/R0) in Affinity Selection Mass Spectrometry assay
Chain of Rheb (Q15382 1-169 limits assumed): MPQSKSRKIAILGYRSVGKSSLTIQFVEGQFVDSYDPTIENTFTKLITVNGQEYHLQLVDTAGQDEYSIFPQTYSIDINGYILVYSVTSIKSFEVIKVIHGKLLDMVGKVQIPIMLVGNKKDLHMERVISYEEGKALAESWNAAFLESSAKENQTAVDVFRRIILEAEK
Procedure, shortened: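 Human Rheb (60 μM) with GDP (180 μM) and each compound at 2 μM, protein-plus versus protein-minus, incubated 30 min at room temperature, then washed by 10 kDa ultrafiltration. Retained ligand was released with MeCN and detected by UPLC-Q-TOF MS.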

Chain of HA-GST-Rheb (GTP-γ-S loaded) activating mTORC1 (Q15382 1-181): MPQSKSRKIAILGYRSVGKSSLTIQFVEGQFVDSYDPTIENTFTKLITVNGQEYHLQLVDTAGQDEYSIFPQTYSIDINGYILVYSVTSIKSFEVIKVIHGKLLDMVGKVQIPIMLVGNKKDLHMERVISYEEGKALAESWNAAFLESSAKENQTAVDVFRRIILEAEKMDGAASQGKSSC

## Cc1cc(Sc2ccc(Cl)cc2)c2cc(C(=O)O)[nH]c2c1C [I-58, 4-(4-chlorophenylthio)-6,7-dimethyl-1H-indole-2-carboxylic acid]
[1]
  IC50: 10 to 100 µM
Rheb
  ASMS (R3/R0): B (an affinity (R3/R0) between 100% and 20%)

## Cn1ccc2c(Oc3ccccc3F)cccc21 [I-267]
[1]
  IC50: > 3 µM
Rheb
  ASMS (R3/R0): C (an affinity (R3/R0)<20%)

## O=C(O)c1cc2c(Sc3ccc(Cl)cc3Cl)cc(Cl)cc2n1Cc1ccc(-c2ccncc2)cc1 [I-70, 6-chloro-4-(2,4-dichlorophenylthio)-1-(4-(pyridin-4-yl)benzyl)-1H-indole-2-carboxylic acid]
[1]
  IC50: < 10 µM
Rheb
  ASMS (R3/R0): A (an affinity (R3/R0)>100%)

## Cc1ccc(Oc2cc(Cl)cc3[nH]c(CO)cc23)cc1C(F)(F)F [I-82, (6-Chloro-4-(4-methyl-3-(trifluoromethyl)phenoxy)-1H-indol-2-yl)methanol]
[1]
  IC50: < 10 µM
Rheb
  ASMS (R3/R0): B (an affinity (R3/R0) between 100% and 20%)

## c1ccc(Oc2cccc3c2nc(-c2ncco2)n3Cc2ccc(-c3nnn[nH]3)cc2)cc1 [I-421, 2-(1-(4-(1H-tetrazol-5-yl)benzyl)-4-phenoxy-1H-benzo[d]imidazol-2-yl)oxazole]
[1]
  IC50: 10 to 100 µM
Rheb
  ASMS (R3/R0): C (an affinity (R3/R0)<20%)

## O=C(NCc1ccccn1)c1cc2c(Sc3ccc(Cl)cc3)cc(Cl)cc2[nH]1 [I-149, 6-chloro-4-(4-chlorophenylthio)-N-(pyridin-2-ylmethyl)-1H-indole-2-carboxamide]
[1]
  IC50: 10 to 100 µM
Rheb
  ASMS (R3/R0): B (an affinity (R3/R0) between 100% and 20%)

## CN1CCN(C(=O)c2ccc(-c3nc4cc(Cl)c(Cl)cc4[nH]3)cc2)CC1 [I-349]
[1]
  IC50: > 100 µM
Rheb
  ASMS (R3/R0): B (an affinity (R3/R0) between 100% and 20%)

## O=C(NCCN1CCN(c2ccccc2)CC1)c1cc2c(Sc3ccc(Cl)cc3Cl)cc(Cl)cc2[nH]1 [I-119]
[1]
  IC50: > 100 µM
Rheb
  ASMS (R3/R0): B (an affinity (R3/R0) between 100% and 20%)

## CC(O)c1cc2c(Br)cc(Oc3ccccc3)cc2[nH]1 (centres unmarked) [I-218, 1-(4-bromo-6-phenoxy-1H-indol-2-yl)ethanol]
[1]
  IC50: 10 to 100 µM
Rheb
  ASMS (R3/R0): B (an affinity (R3/R0) between 100% and 20%)

## 5,6-dichloro-4-(4-chlorobenzyloxy)-1H-benzo[d]imidazole-2-carboxylic acid [I-330]
[1]
  IC50: > 100 µM
Rheb
  ASMS (R3/R0): B (an affinity (R3/R0) between 100% and 20%)

## OCc1cc2c(Cl)cc(Oc3ccccc3)cc2n1Cc1nn[nH]n1 [I-194, (1-((2H-tetrazol-5-yl)methyl)-4-chloro-6-phenoxy-1H-indol-2-yl)methanol]
[1]
  IC50: 10 to 100 µM
Rheb
  ASMS (R3/R0): C (an affinity (R3/R0)<20%)

## O=C(O)c1cc2c(Br)cc(Oc3ccccc3)cc2n1Cc1ccc(C(=O)N2CCNCC2)cc1 [I-61]
[1]
  IC50: > 100 µM
Rheb
  ASMS (R3/R0): C (an affinity (R3/R0)<20%)

## CC(C)(C)c1cccc(Sc2cc(Cl)cc3[nH]c(C(=O)O)cc23)c1 [I-65, 4-(3-tert-butylphenylthio)-6-chloro-1H-indole-2-carboxylic acid]
[1]
  IC50: < 10 µM
Rheb
  ASMS (R3/R0): B (an affinity (R3/R0) between 100% and 20%)

## CN(CCO)C(=O)c1ccc(Cn2c(C(=O)O)cc3c(Br)cc(Oc4ccccc4)cc32)cc1 [I-69, 4-bromo-1-(4-((2-hydroxyethyl)(methyl)carbamoyl)benzyl)-6-phenoxy-1H-indole-2-carboxylic acid]
[1]
  IC50: 10 to 100 µM
Rheb
  ASMS (R3/R0): C (an affinity (R3/R0)<20%)

## O=C(O)c1cc2c(OCc3ccc(Cl)cc3)cc(Cl)c(Cl)c2[nH]1 [I-60, 6,7-dichloro-4-(4-chlorobenzyloxy)-1H-indole-2-carboxylic acid]
[1]
  IC50: 10 to 100 µM
Rheb
  ASMS (R3/R0): B (an affinity (R3/R0) between 100% and 20%)

## CN(C)C(=O)c1ccc(Cn2c(CN)cc3c(Br)cc(Sc4ccc(Cl)c(Cl)c4)cc32)cc1 [I-37]
[1]
  IC50: > 100 µM
Rheb
  ASMS (R3/R0): C (an affinity (R3/R0)<20%)

## CN1CCN(C(=O)Cc2nc3cc(Cl)c(OCc4ccc(Cl)cc4)cc3[nH]2)CC1 [I-332, 2-[5-chloro-6-[(4-chlorophenyl)methoxy]-1H-benzimidazol-2-yl]-1-(4-methylpiperazin-1-yl)ethanone]
[1]
  IC50: 10 to 100 µM
Rheb
  ASMS (R3/R0): A (an affinity (R3/R0)>100%)

## CN1CCC[C@@H]1CNC(=O)c1ccc(-c2nc3cc(Cl)c(Cl)cc3[nH]2)cc1 [I-341]
[1]
  IC50: > 100 µM
Rheb
  ASMS (R3/R0): B (an affinity (R3/R0) between 100% and 20%)

## O=C(O)c1nc2cc(OCc3ccc(Cl)cc3)c(Cl)cc2[nH]1 [I-343, 6-chloro-5-(4-chlorobenzyloxy)-1H-benzo[d]imidazole-2-carboxylic acid]
[1]
  IC50: 10 to 100 µM
Rheb
  ASMS (R3/R0): A (an affinity (R3/R0)>100%)

## Clc1ccc(Sc2cc(Cl)cc3[nH]c(-c4ccnc5[nH]ccc45)nc23)cc1 [I-326, 6-chloro-4-(4-chlorophenylthio)-2-(1H-pyrrolo[2,3-b]pyridin-4-yl)-1H-benzo[d]imidazole]
[1]
  IC50: 10 to 100 µM
Rheb
  ASMS (R3/R0): B (an affinity (R3/R0) between 100% and 20%)

## Clc1ccc2nc(-c3ncco3)n(Cc3ccc(-c4nnn[nH]4)cc3)c2c1 [I-411, 2-(1-(4-(1H-tetrazol-5-yl)benzyl)-6-chloro-1H-benzo[d]imidazol-2-yl)oxazole]
[1]
  IC50: 10 to 100 µM
Rheb
  ASMS (R3/R0): C (an affinity (R3/R0)<20%)

## O=C(O)c1cc2c(Sc3ccc(Cl)cc3Cl)cc(Cl)cc2n1Cc1ccc(Br)cc1 [I-103]
[1]
  IC50: > 100 µM
Rheb
  ASMS (R3/R0): B (an affinity (R3/R0) between 100% and 20%)

## O=C(NCC1CCOCC1)c1cc2c(Sc3ccc(Cl)cc3)cc(Cl)cc2[nH]1 [I-143]
[1]
  IC50: > 100 µM
Rheb
  ASMS (R3/R0): B (an affinity (R3/R0) between 100% and 20%)

## O=C1CCc2ccc(Oc3cc(Cl)cc4[nH]c(C(=O)O)cc34)cc2N1 [I-108, 6-chloro-4-(2-oxo-1,2,3,4-tetrahydroquinolin-7-yloxy)-1H-indole-2-carboxylic acid]
[1]
  IC50: 100 to 300 µM
Rheb
  ASMS (R3/R0): B (an affinity (R3/R0) between 100% and 20%)

## O=C(O)c1cc2c(Sc3ccc(Oc4ccc(Cl)cc4)cc3)cc(Cl)cc2[nH]1 [I-84, 6-chloro-4-(4-(4-chlorophenoxy)phenylthio)-1H-indole-2-carboxylic acid]
[1]
  IC50: < 10 µM
Rheb
  ASMS (R3/R0): B (an affinity (R3/R0) between 100% and 20%)

## CN1CCC(CCNC(=O)c2cc3c(Br)cc(Sc4ccc(Cl)c(Cl)c4)cc3n2Cc2ccc(C(=O)OC(C)(C)C)cc2)CC1 [I-110]
[1]
  IC50: > 100 µM
Rheb
  ASMS (R3/R0): C (an affinity (R3/R0)<20%)

## OCc1cc2c(Sc3ccc(F)cc3)cc(Cl)cc2[nH]1 [I-153, (6-chloro-4-(4-fluorophenylthio)-1H-indol-2-yl)methanol]
[1]
  IC50: 10 to 100 µM
Rheb
  ASMS (R3/R0): B (an affinity (R3/R0) between 100% and 20%)

## O=C(NO)c1cc2c(Sc3ccc(Cl)cc3)cc(Cl)cc2[nH]1 [I-177, 6-chloro-4-(4-chlorophenylthio)-N-hydroxy-1H-indole-2-carboxamide]
[1]
  IC50: 10 to 100 µM
Rheb
  ASMS (R3/R0): A (an affinity (R3/R0)>100%)

## OCc1nc2cc(OCc3ccc(Cl)cc3)c(Cl)cc2[nH]1 [I-486, (6-chloro-5-(4-chlorobenzyloxy)-1H-benzo[d]imidazol-2-yl)methanol]
[1]
  IC50: > 100 µM
Rheb
  ASMS (R3/R0): A (an affinity (R3/R0)>100%)

## O=C(O)c1ccc(CCn2c(C(=O)O)cc3c(Br)cc(Oc4ccccc4)cc32)cc1 [I-36]
[1]
  IC50: > 100 µM
Rheb
  ASMS (R3/R0): C (an affinity (R3/R0)<20%)

## Cc1ccc(Oc2cc(Cl)cc3[nH]c(C(=O)O)cc23)cc1C(F)(F)F [I-81, 6-chloro-4-(4-methyl-3-(trifluoromethyl)phenoxy)-1H-indole-2-carboxylic acid]
[1]
  IC50: 10 to 100 µM
Rheb
  ASMS (R3/R0): B (an affinity (R3/R0) between 100% and 20%)

## Clc1ccc(COc2cc3nc(-c4ccncc4)[nH]c3c(Cl)c2Cl)cc1 [I-354, 6,7-dichloro-5-(4-chlorobenzyloxy)-2-(pyridin-4-yl)-1H-benzo[d]imidazole]
[1]
  IC50: 10 to 100 µM
Rheb
  ASMS (R3/R0): A (an affinity (R3/R0)>100%)

## CN(C)C(=O)c1ccc(Cn2c(C(=O)O)cc3c(Br)cc(SC4CCOCC4)cc32)cc1 [I-12, 4-bromo-1-(4-(dimethylcarbamoyl)benzyl)-6-(tetrahydro-2H-pyran-4-ylthio)-1H-indole-2-carboxylic acid]
[1]
  IC50: 10 to 100 µM
Rheb
  ASMS (R3/R0): C (an affinity (R3/R0)<20%)

## OCc1ccc(Cn2c(CO)cc3c(Br)cc(Oc4ccccc4)cc32)cc1 [I-166]
[1]
  IC50: > 100 µM
Rheb
  ASMS (R3/R0): B (an affinity (R3/R0) between 100% and 20%)

## CN(C)C(=O)c1ccc(Cn2c(C(=O)O)cc3c(Br)cc(Sc4ccc5ccccc5c4)cc32)cc1 [I-28, 4-bromo-1-(4-(dimethylcarbamoyl)benzyl)-6-(naphthalen-2-ylthio)-1H-indole-2-carboxylic acid]
[1]
  IC50: < 10 µM
Rheb
  ASMS (R3/R0): B (an affinity (R3/R0) between 100% and 20%)

## COC(=O)c1cc2c(Sc3ccc(Br)cc3)cc(Cl)cc2[nH]1 [I-99]
[1]
  IC50: > 100 µM
Rheb
  ASMS (R3/R0): B (an affinity (R3/R0) between 100% and 20%)

## NC(=O)C1CCCN(C(=O)c2cc3c(Sc4ccc(Cl)cc4)cc(Cl)cc3[nH]2)C1 (centres unmarked) [I-132]
[1]
  IC50: > 100 µM
Rheb
  ASMS (R3/R0): B (an affinity (R3/R0) between 100% and 20%)

## OCc1nc2cc(Sc3ccc(Cl)cc3Cl)c(Cl)c(Cl)c2[nH]1 [I-358, (6,7-dichloro-5-(2,4-dichlorophenylthio)-1H-benzo[d]imidazol-2-yl)methanol]
[1]
  IC50: 10 to 100 µM
Rheb
  ASMS (R3/R0): B (an affinity (R3/R0) between 100% and 20%)

## Cc1cc(Sc2ccc(Cl)cc2)c2cc(C(=O)O)[nH]c2c1Br [I-64, 7-bromo-4-(4-chlorophenylthio)-6-methyl-1H-indole-2-carboxylic acid]
[1]
  IC50: 10 to 100 µM
Rheb
  ASMS (R3/R0): B (an affinity (R3/R0) between 100% and 20%)

## OCc1cc2c(OCc3cccc(Cl)c3)cc(Cl)cc2[nH]1 [I-176, (6-chloro-4-(3-chlorobenzyloxy)-1H-indol-2-yl)methanol]
[1]
  IC50: 10 to 100 µM
Rheb
  ASMS (R3/R0): B (an affinity (R3/R0) between 100% and 20%)
